Read-outs that look alike come from different tables or passages of the source.

One series relates to CDK. Format: cell-based, human. The note with it: HepG2, 24 h.
The test system of series [1] is HepG2 cells. Description: FACTORIAL assay: query of TFAPs against reference compound signatures of the Attagene TFAP database. Format: cell-based, human. The note with it: HepG2, 24 h.
The next series relates to HG19/HepG2 cells. Format: cell-based. Here is the method:
Cell viability was evaluated by the XTT (2,3-Bis-(2-Methoxy-4-Nitro-5-Sulfophenyl)-2H-Tetrazolium-5-Carboxanilide) assay (ATCC) in HG19/HepG2 cells. As a baseline, cells are used that were treated with corresponding dilutions of the vehicle (DMSO). The viability data are an average of two replicates. The viability threshold was set at 80% viability.

Series [2] concerns HepG2 cells. As to the kind of experiment: FACTORIAL assay: transition of the TFAP signature of glitazones with concentration. The settings on record: HepG2, 24-hour treatment. Type of series: cell-based, human.
For series [3] the following is noted: in humans; cited from earlier work.
In series [4] the test system is ubiquitin (Ub)/proteasome pathway (UPP). Description: FACTORIAL assay: similarity of TFAP to the consensus UPP TFAP. Format: cell-based, human.

In the case of `CCc1cnn2c(NCc3ccc[n+]([O-])c3)cc(N3CCCC[C@H]3CCO)nc12` [Dinaciclib, reference compound], the “similarity r to the invariant signature for CDK inhibitors” value in the series on CDK (over three logs of concentrations) is on record as above 0.85.

As for `CCN(CC)C(=O)c1ccc(Nc2nc(OCC3CCCCC3)c3[nH]cnc3n2)cc1` [NU6140, reference compound], in the series on HepG2 cells [1] (at 20 uM), the “similarity r to the signature for a cadmium salt” value is listed as 0.71. For the same compound, the “concentration with signature similar to the invariant signature for CDK inhibitors” value in the series on CDK came out at 6.7 µM.

With `Cc1c(C)c2c(c(C)c1O)CCC(C)(COc1ccc(CC3SC(=O)NC3=O)cc1)O2` (stereo not shown) [Troglitazone], in the series with HG19/HepG2 cells, the cell death entry is “caused cell death”. Further, in the series on HepG2 cells [2], the “concentration of transformation into tertiary signature” value is 60 µM and the “concentration of transformation of primary TFAP into secondary TFAP (threshold for off-target effects)” value stood at 20 µM. In the series with HepG2 cells [1] (at 60 uM), the “similarity r with the TFAP for hydrogen peroxide” value is above 0.8. Besides, the maximum plasma concentration in series [3] was 6.4 µM.

Consider `[Cl][Cd][Cl]` [cadmium chloride], for which the “retrieved by querying the Attagene dataset with the invariant UPP signature” value in series [4] was “retrieved”.

For triphenyltin, the “retrieved by querying the Attagene dataset with the invariant UPP signature” value in series [4] (HepG2, ToxCast TFAP dataset) was “retrieved”.
